Assay results: EP0427427A2, “Use of arylalkylamides in the treatment of neurodegenerative diseases” (FISONS CORPORATION, priority 1989, dated 1991)
Read-outs that look alike come from different tables or passages of the source.

How the values were obtained:
[1] = system: Rats; test: 4-vessel occlusion model of stroke, viability of CA1 neurons in the hippocampus; format: in vivo; details: ip doses of 20mg/kg twice daily for one week, first injection 30 minutes after reflow, 30 minutes 4-vessel occlusion, brains at 8 days
[2] = system: Dogs; test: Global ischemia (clamping the ascending aorta), protection of CA1 neurons; details: iv, 8 minutes global ischemia, treatment from 30 minutes after reflow, CA1 neurons on day 8
Protocol: (§1) Dogs - Dogs are subjected to 8 minutes global ischemia (clamping the ascending aorta) and are treated iv with drug at 30 minutes after reflow. Treatment is given 6 hours later, b.i.d. for 2 more days and s.i.d. for 4 additional days. On day 8 the brains are removed and again drug protection of the vulnerable CA1 neurons is assessed. The Toxic doses are determined by administering the drug iv to conscious dogs in incremental doses and observing for side effects (we use preictal behaviour or convulsions as an endpoint).

[3] = system: Mice; test: Antihypoxia studies (time to mortality in a hypoxic environment); format: in vivo; details: Mus musculus, oral, dose that produces a 50% increase in the time to mortality in an hypoxic environment
Protocol: Antihypoxia activity, that is, they extension of the lifetime of animals exposed to a hypoxic environment, may be conveniently measured in mice. Groups of mice are tested at various times after the intraperitoneal administration of graded doses of the test compound. The animals' survival time in a temperature controlled hypoxic environment (96% nitrogen and 4% oxygen) is recorded. A statistical comparison is made between coincident vehicle treated animals and the experimental group. […] Other modes of administration can also be used.

[4] = Inverted screen test of Coughenour et al. (TD50); details: mouse, in vivo, mice, oral
[5] = system: Mice; test: Protection against NMDLA induced seizures (convulsions); format: in vivo; details: Mus musculus, 5 min, ip, evaluated for 5 minutes following iv injection of 150 mg/kg NMDLA
Protocol: NMDA blocking activity may be measured by assessing a compound's ability to protect mice from convulsions induced by intravenous administration of 150 m/k of NMDA according to the procedures of Czuczwar et al., (Neurotransmitters, Seizures and Epilepsy III, edited by G. Nistico et al., Raven Press, New York 1986, pages 235-246). […] […] Animals were kept for 60 min after NMDA dosing and mortality was recorded.

[6] = system: Mice; test: Protection against NMDLA induced mortality; format: in vivo; details: Mus musculus, 1 h, ip, evaluated over 60 minutes after NMDLA injection (150 mg/kg iv)
Protocol: NMDA blocking activity may be measured by assessing a compound's ability to protect mice from convulsions induced by intravenous administration of 150 m/k of NMDA according to the procedures of Czuczwar et al., (Neurotransmitters, Seizures and Epilepsy III, edited by G. Nistico et al., Raven Press, New York 1986, pages 235-246). Groups of mice were pretreated by 30 min with the test compound by the oral or intraperitoneal routes and then given NMDA. […] Animals were kept for 60 min after NMDA dosing and mortality was recorded.

[7] = CD50: seizure following ip injection of the compound; details: mouse, in vivo, mice, no inverted screen TD50 performed, CD50 = dose when 50% of mice experience a seizure following ip injection
[8] = system: Rats; test: Neurotoxicity TD50, narrow plank walking test; details: narrow plank test one hour after administration
Protocol: Rats - Rats are subjected to the 4-vessel occlusion model of stroke for 30 minutes followed by drug injection at 30 minutes after blood reflow to the brain. The drugs are administered ip twice daily for one week. At 8 days post stroke the brains are removed and protection is determined by determining viability of the vulnerable CA1 neurons in the hippocampus (neutrons associated with short term memory). […] Rats that fall are scored as failures.

[9] = system: Dogs; details: iv
Protocol: as §1

[10] = system: Dogs; details: conscious dogs, iv incremental doses
Protocol: as §1

## CC(Cc1ccccc1)(NC(=O)CN)c1ccccc1 (stereo not drawn) [Compound A, 2-amino-N-(1,2-diphenyl-1-methylethyl)acetamide]
[1]
  preventing loss of the CA1 neurons: effective
[2]
  dose active in protecting dogs against stroke: 7.5 mg/kg

## NCC(=O)NC(Cc1ccccc1)c1ccccc1 (stereo not drawn) [Compound B, 2-amino-N-(1,2-diphenylethyl)acetamide]
[3]
  ED50: 19.1 mg/kg
[4]
  TD50: 236 mg/kg
[5]
  ED50: 33 mg/kg
[6]
  ED50: 20.6 mg/kg
[7]
  TD50: 82.4 mg/kg
[1]
  preventing loss of the CA1 neurons: effective
[8]
  ip doses for TD50s relative to neurotoxicity in the rat: 47
[9]
  dose active in protecting dogs against stroke: 5 mg/kg
[10]
  lowest toxic dose for convulsions: 44 mg/kg
  lowest toxic dose for preictal behaviour: 44 mg/kg
